We go through 13 molecules from patent US9540389B2, “Antimicrobial potentiators” (priority 2013, dated 2017).

For one experiment, the system named is Escherichia coli AB1157. The experiment can be described thus: MIC assay (microbroth dilution) ± 25 μM EPI. The class given is cell-based. Particulars: for MICs (μg/ml) ± EPIs: MBX2319 / MICs (μg/ml) ± EPIs: PAβN / MICs (μg/ml) ± EPIs: None: E. coli AB1157 (WT), geometric mean; for MICs (μg/ml) ± EPIs: MBX2319: + 25 μM MBX2319; for MICs (μg/ml) ± EPIs: PAβN: + 25 μM PAβN; for MIC Ratio MBX2319 / MIC Ratio PAβN: E. coli AB1157; for MIC Ratio MBX2319: MIC no cmpd/MIC + 25 μM MBX2319; for MIC Ratio PAβN: MIC no cmpd/MIC + 25 μM PAβN; for MIC: Escherichia coli, AB1157, read-out: MICs (μg/ml) ± EPIs: None; for MICs (μg/ml) ± EPIs: None: no EPI. An excerpt:
(§1) • Strains and Reagents. The following strains were obtained from the Keio collection (Baba, et al.: Construction of Escherichia coli K-12 in-frame, single-gene knockout mutants: the Keio collection. In Mol Syst Biol, vol. 2, pp. 2006 0008, (2006)): JW0451 (ΔacrB::kan), JW5503 (ΔtolC::kan), JW3234 (ΔacrF::kan), JW2661 (ΔemrB::kan), JW0863 (ΔmacB::kan). The deletion mutations in each of these strains were transferred to AB1157 using P1 phage transduction (see Table 1). The construction of the E. coli cell-based reporter strain (SOS-XXX) that was used for high throughput screening is described in detail in the supplementary information. […] Irgasan was a generous gift from Ciba Speciality Chemicals, Inc. (High Point, N.C.). Hoechst 33342 (H33342) was purchased from Molecular Probes (Eugene, Oreg.). […] Luria Broth (Miller) and agar were purchased as prepared dehydrated media from Becton Dickenson (Franklin Lakes, N.J.). The compound libraries used in high-throughput screens were purchased from Chembridge (San Diego, Calif.), ChemDiv (San Diego, Calif.), and TimTec (Newark, Del.). MBX2319 was synthesized by Microbiotix, Inc. • Antibacterial Activity Assays. The minimal inhibitory concentration (MIC) of antibacterial agents and biocides were determined using the microbroth dilution method essentially as described in the CLSI protocol M7-A7 (CLSI: Method for dilution antimicrobial susceptibility testing for bacteria that grow aerobically; Approved standard-document M7-A7. In Clinical and Laboratory Standards Institute document M7-A7, Clinical and Laboratory Standards Institute, Wayne, Pa., (2006)), with the following exceptions. LB media was used instead of MHB. […] The final concentration of DMSO in each assay was 2%. […] MIC assays were performed in triplicate and the geometric mean was calculated. Checkerboard MIC assays using an EPI and an antibacterial agent were performed essentially as described (Pillai, et al.: Antimicrobial Combinations. In Antibiotics in Laboratory Medicine, ed. by V. Lorian, pp. 365-440, Lippincott Williams & Wilkins, Philadelphia, Pa., (2005)), with the same modifications used for the MIC assays described above. • Time-Kill Assays. Killing curve assays were performed essentially as described (Pillai, et al.: Antimicrobial Combinations. In Antibiotics in Laboratory Medicine, ed. by V. Lorian, pp. 365-440, Lippincott Williams & Wilkins, Philadelphia, Pa., (2005)). Exponential bacterial cultures grown in LB were diluted to a cell density of ˜1×10^7 in LB followed by addition of CIP and/or an EPI. Viability was monitored over 2-4 hours by making serial dilutions in saline and spotting 5 μl of each dilution onto the surface of an LB agar plate in triplicate. Colonies were counted after the plates were incubated at 37° C. for 16-18 hr, colony forming units (CFU) per ml were calculated, and the average and standard deviation for the three replicates was determined. For treatments that decreased CFU/ml below the limit of detection for the spot plating method, the 100 μl samples were diluted into 5 ml LB top agar, were poured onto LB agar plates, and incubated for 18 hr at 37° C. To calculate the fraction of the control for each sample, the average CFU/ml values for treated samples were divided by those from the same sample at 0 h (time=0). Each experiment was repeated at least three times, and a representative experiment is shown. • H33342 Accumulation Assay. The rate of accumulation of the fluorescent dye Hoechst 33342 (H33342), which is a substrate of a wide variety of bacterial efflux pumps (van den Berg van Saparoea, et al., Biochemistry, vol. 44, pp. 16931-16938, (2005)), can be used to estimate the activity of the major efflux pumps in E. coli and many other bacterial species. The H33342 accumulation assay was used to evaluate the effect of EPIs on the activity of the AcrAB-TolC efflux pump in several bacterial species essentially as described (Coldham, et al., J Antimicrob Chemother, vol. 65, pp. 1655-1663, (2010)). […]
A general note: Dilution methods test growth across graded concentrations, often in twofold steps.

The test system of experiment [1] is Escherichia coli AB1157 ΔacrB. The experiment can be described thus: MIC assay (microbroth dilution). The format is cell-based. Particulars: for MIC: Escherichia coli, read-out: MICs (μg/ml) ΔacrB None; for MIC Ratio ΔacrB: MIC WT/MIC ΔacrB; for MICs (μg/ml) ΔacrB None: ΔacrB strain, no EPI, geometric mean.
Excerpt: as §1

Turning to `CN(C)c1ccc(C(=C2C=CC(=[N+](C)C)C=C2)c2ccc(N(C)C)cc2)cc1` [Crystal violet], in the experiment with Escherichia coli AB1157, the “MICs (μg/ml) ± EPIs: MBX2319” value worked out at 8 µg/mL, the “MICs (μg/ml) ± EPIs: PAβN” value is 1 µg/mL, the “MIC Ratio MBX2319” value is on record as 2 and the “MIC Ratio PAβN” value stood at 16. In addition, the MIC in the experiment with Escherichia coli AB1157 is 16 µg/mL. Also, in experiment [1], the MIC turned out to be 1 µg/mL and the “MIC Ratio ΔacrB” value is reported as 16.
In the case of `CC1(C)S[C@@H]2[C@H](NC(=O)[C@H](N)c3ccc(O)cc3)C(=O)N2[C@H]1C(=O)O` [Amoxacillin], in the experiment on Escherichia coli AB1157, the “MICs (μg/ml) ± EPIs: MBX2319” value is 4 µg/mL, the “MICs (μg/ml) ± EPIs: PAβN” value worked out at 4 µg/mL, the “MICs (μg/ml) ± EPIs: None” value was found to be 4 µg/mL and the “MIC Ratio MBX2319” value was 1. Also, in the experiment on Escherichia coli AB1157, the “MIC Ratio PAβN” value is 1. In addition, in experiment [1], the “MIC Ratio ΔacrB” value came to 0.5 and the “MICs (μg/ml) ΔacrB None” value was 8 µg/mL.
Regarding `CC[n+]1c(-c2ccccc2)c2cc(N)ccc2c2ccc(N)cc21` [Ethidium Br, Ethidium Bromide], in the experiment on Escherichia coli AB1157, the “MICs (μg/ml) ± EPIs: MBX2319” value is 256 µg/mL, the “MICs (μg/ml) ± EPIs: PAβN” value was 16 µg/mL, the “MIC Ratio MBX2319” value is on record as 1 and the “MIC Ratio PAβN” value is given as 16. Besides, the MIC with Escherichia coli AB1157 was determined as 256 µg/mL. In experiment [1], the MIC came to 8 µg/mL and the “MIC Ratio ΔacrB” value is 32.
For `CO[C@H]1/C=C/O[C@@]2(C)Oc3c(C)c(O)c4c(O)c(c(/C=N/N5CCN(C)CC5)c(O)c4c3C2=O)NC(=O)/C(C)=C\C=C\[C@H](C)[C@H](O)[C@@H](C)[C@@H](O)[C@@H](C)[C@H](OC(C)=O)[C@@H]1C` [Rifampicin], in the experiment on Escherichia coli AB1157, the “MICs (μg/ml) ± EPIs: MBX2319” value stood at 8 µg/mL and the MIC is 8 µg/mL. Besides, the MIC in experiment [1] was 8 µg/mL.
For the molecule `Cc1onc(-c2ccccc2)c1C(=O)N[C@@H]1C(=O)N2[C@@H]1SC(C)(C)[C@@H]2C(=O)O` [Oxacillin], the “MICs (μg/ml) ± EPIs: MBX2319” value in the experiment on Escherichia coli AB1157 came to 64 µg/mL. Also, the MIC in the experiment on Escherichia coli AB1157 is 512 µg/mL; in experiment [1], 4 µg/mL.
As to Gentamicin, in the experiment on Escherichia coli AB1157, the “MICs (μg/ml) ± EPIs: MBX2319” value amounted to 8 µg/mL, the “MICs (μg/ml) ± EPIs: PAβN” value was determined as 8 µg/mL, the “MICs (μg/ml) ± EPIs: None” value came out at 4 µg/mL and the “MIC Ratio MBX2319” value was determined as 0.5. Besides, the “MIC Ratio PAβN” value in the experiment with Escherichia coli AB1157 turned out to be 0.5. Further, in experiment [1], the “MIC Ratio ΔacrB” value stood at 1 and the “MICs (μg/ml) ΔacrB None” value was 4 µg/mL.
With `O=C(N[C@H](CO)[C@H](O)c1ccc([N+](=O)[O-])cc1)C(Cl)Cl` [Cloramphenicol], in the experiment on Escherichia coli AB1157, the “MICs (μg/ml) ± EPIs: MBX2319” value stood at 2 µg/mL, the “MICs (μg/ml) ± EPIs: PAβN” value was found to be 2 µg/mL, the “MICs (μg/ml) ± EPIs: None” value came out at 8 µg/mL and the “MIC Ratio MBX2319” value was 4. Besides, in the experiment with Escherichia coli AB1157, the “MIC Ratio PAβN” value was determined as 4. Also, in experiment [1], the “MIC Ratio ΔacrB” value is 4 and the “MICs (μg/ml) ΔacrB None” value is 2 µg/mL.
For `Oc1cc(Cl)ccc1Oc1ccc(Cl)cc1Cl` [Irgasan], in the experiment on Escherichia coli AB1157, the “MICs (μg/ml) ± EPIs: MBX2319” value stood at 0.125 µg/mL, the “MICs (μg/ml) ± EPIs: PAβN” value was found to be 0.031 µg/mL, the “MICs (μg/ml) ± EPIs: None” value is 0.25 µg/mL and the “MIC Ratio MBX2319” value was 2. Moreover, in the experiment on Escherichia coli AB1157, the “MIC Ratio PAβN” value was 8. Moreover, in experiment [1], the “MIC Ratio ΔacrB” value came to 8 and the “MICs (μg/ml) ΔacrB None” value worked out at 0.031 µg/mL.
Consider `CN(C)[C@@H]1C(O)=C(C(N)=O)C(=O)[C@@]2(O)C(O)=C3C(=O)c4c(O)cccc4[C@@](C)(O)[C@H]3C[C@@H]12` [Tetracycline], for which the MIC in experiment [1] was found to be 0.5 µg/mL.
As to `CC1=C(C(=O)O)N2C(=O)[C@@H](NC(=O)[C@H](N)c3ccccc3)[C@H]2SC1` [Cephalexin], in the experiment on Escherichia coli AB1157, the “MICs (μg/ml) ± EPIs: MBX2319” value was determined as 16 µg/mL, the “MICs (μg/ml) ± EPIs: PAβN” value stood at 16 µg/mL, the “MIC Ratio MBX2319” value was 2 and the “MIC Ratio PAβN” value was found to be 2. The MIC in the experiment with Escherichia coli AB1157 is 32 µg/mL. Further, in experiment [1], the MIC was found to be 32 µg/mL and the “MIC Ratio ΔacrB” value was 1.
As to `CCn1cc(C(=O)O)c(=O)c2cc(F)c(N3CCNCC3)cc21` [Norfloxacin], in the experiment on Escherichia coli AB1157, the “MICs (μg/ml) ± EPIs: MBX2319” value was determined as 0.063 µg/mL, the “MICs (μg/ml) ± EPIs: PAβN” value was found to be 0.063 µg/mL, the “MIC Ratio MBX2319” value was determined as 1 and the “MIC Ratio PAβN” value is given as 1. Moreover, the MIC in the experiment on Escherichia coli AB1157 worked out at 0.063 µg/mL. For the same molecule, in experiment [1], the MIC is 0.016 µg/mL and the “MIC Ratio ΔacrB” value came to 4.
Consider `Cc1onc(-c2ccccc2Cl)c1C(=O)N[C@@H]1C(=O)N2[C@@H]1SC(C)(C)[C@@H]2C(=O)O` [Cloxacillin], for which, in the experiment on Escherichia coli AB1157, the “MICs (μg/ml) ± EPIs: MBX2319” value was 128 µg/mL, the “MICs (μg/ml) ± EPIs: PAβN” value was found to be 64 µg/mL, the “MIC Ratio MBX2319” value was 2 and the “MIC Ratio PAβN” value came out at 4. The MIC in the experiment on Escherichia coli AB1157 was 256 µg/mL. Further, in experiment [1], the MIC worked out at 4 µg/mL and the “MIC Ratio ΔacrB” value turned out to be 64.
In the case of `CCn1cc(C(=O)O)c(=O)c2ccc(C)nc21` [Nalidixic acid], in the experiment with Escherichia coli AB1157, the “MICs (μg/ml) ± EPIs: MBX2319” value came out at 8 µg/mL, the “MICs (μg/ml) ± EPIs: PAβN” value is 1 µg/mL, the “MIC Ratio MBX2319” value was 2 and the “MIC Ratio PAβN” value worked out at 16. Further, the MIC with Escherichia coli AB1157 came to 16 µg/mL. In experiment [1], the MIC stood at 8 µg/mL and the “MIC Ratio ΔacrB” value was 2.
